Measured values as given in the supplement of paper PMC10307832.

Tests used:
Test in all cases: relative viability (nuclei count vs DMSO), 5 days (fraction); higher = more cells survive
[1] = compound: C1CC(C2=C(C1)C3=C(N2)C=CC(=C3)Cl)C(=O)N [Selisistat] + Nc1ncn([C@H]2C[C@H](O)[C@@H](CO)O2)c(=O)n1 [Decitabine] (partner 2 µM)
In short: (§1)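 Values are medians from duplicate plates. Each reflects relative viability, defined as the nuclei count of treated wells over that of vehicle wells. Lung cancer cell lines in 1536-well plates were pin-tool dosed one day after seeding with one drug alone or with a fixed anchor-drug dose plus five library-drug doses (not always all listed) in √10 steps, then fixed, stained and imaged at 4× after 5 days.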

[2] = compound: C1CC(C2=C(C1)C3=C(N2)C=CC(=C3)Cl)C(=O)N [Selisistat] + CC(C)C[C@H](NC(=O)[C@H](Cc1ccccc1)NC(=O)c1cnccn1)B(O)O [Bortezomib] (partner 0.002 µM)
In short: as §1

[3] = compound: c1ccc2c(CCNc3ccc(Nc4ccncc4)cc3)c[nH]c2c1 [Serdemetan] + CCNC(=O)c1noc(-c2cc(C(C)C)c(O)cc2O)c1-c1ccc(CN2CCOCC2)cc1 [Luminespib] (partner 0.01 µM)
In short: as §1

[4] = compound: c1ccc2c(CCNc3ccc(Nc4ccncc4)cc3)c[nH]c2c1 [Serdemetan] + Cc1nc(Nc2ncc(C(=O)Nc3c(C)cccc3Cl)s2)cc(N2CCN(CCO)CC2)n1 [Dasatinib] (partner 0.075 µM)
In short: as §1

Cell Line: HCC-15
- relative viability ([1]; first compound 0.4 µM): 0.695
- relative viability ([1]; first compound 1.265 µM): 0.739
- relative viability ([1]; first compound 12.65 µM): 0.737
- relative viability ([1]; first compound 40 µM): 0.79
- relative viability ([2]; first compound 0.4 µM): 1.09
- relative viability ([2]; first compound 1.265 µM): 1.03
- relative viability ([2]; first compound 12.65 µM): 1.04
- relative viability ([2]; first compound 40 µM): 1.29
- relative viability ([3]; first compound 0.04 µM): 0.362
- relative viability ([3]; first compound 0.1265 µM): 0.33
- relative viability ([3]; first compound 0.4 µM): 0.281
- relative viability ([3]; first compound 1.265 µM): 0.348
- relative viability ([3]; first compound 4 µM): 0.288
- relative viability ([4]; first compound 0.04 µM): 0.676
- relative viability ([4]; first compound 0.1265 µM): 0.608
- relative viability ([4]; first compound 0.4 µM): 0.562
- relative viability ([4]; first compound 1.265 µM): 0.541
- relative viability ([4]; first compound 4 µM): 0.49

Cell Line: HCC-44
- relative viability ([1]; first compound 0.4 µM): 0.976
- relative viability ([1]; first compound 1.265 µM): 1.01
- relative viability ([1]; first compound 4 µM): 0.943
- relative viability ([1]; first compound 12.65 µM): 1.01
- relative viability ([1]; first compound 40 µM): 1.07
- relative viability ([2]; first compound 0.4 µM): 0.857
- relative viability ([2]; first compound 1.265 µM): 0.908
- relative viability ([2]; first compound 4 µM): 1.02
- relative viability ([2]; first compound 12.65 µM): 0.926
- relative viability ([2]; first compound 40 µM): 0.952
- relative viability ([3]; first compound 0.04 µM): 0.894
- relative viability ([3]; first compound 0.1265 µM): 1.08
- relative viability ([3]; first compound 0.4 µM): 1.01
- relative viability ([3]; first compound 1.265 µM): 0.906
- relative viability ([3]; first compound 4 µM): 0.901

Cell Line: HCC-78
- relative viability ([1]; first compound 0.4 µM): 0.768
- relative viability ([1]; first compound 1.265 µM): 0.794
- relative viability ([1]; first compound 4 µM): 0.6
- relative viability ([1]; first compound 12.65 µM): 0.66
- relative viability ([1]; first compound 40 µM): 0.646
- relative viability ([2]; first compound 0.4 µM): 0.515
- relative viability ([2]; first compound 1.265 µM): 0.471
- relative viability ([2]; first compound 12.65 µM): 0.489
- relative viability ([2]; first compound 40 µM): 0.514
- relative viability ([4]; first compound 0.04 µM): 0.408
- relative viability ([4]; first compound 0.1265 µM): 0.316
- relative viability ([4]; first compound 0.4 µM): 0.331
- relative viability ([4]; first compound 1.265 µM): 0.307
- relative viability ([4]; first compound 4 µM): 0.299

Cell Line: HCC-366
- relative viability ([1]; first compound 0.4 µM): 0.383
- relative viability ([1]; first compound 1.265 µM): 0.31
- relative viability ([1]; first compound 4 µM): 0.33
- relative viability ([1]; first compound 12.65 µM): 0.356
- relative viability ([1]; first compound 40 µM): 0.324
- relative viability ([2]; first compound 0.4 µM): 1.07
- relative viability ([2]; first compound 1.265 µM): 1.02
- relative viability ([2]; first compound 4 µM): 0.955
- relative viability ([2]; first compound 12.65 µM): 0.98
- relative viability ([2]; first compound 40 µM): 1.02
- relative viability ([4]; first compound 0.04 µM): 0.637
- relative viability ([4]; first compound 0.1265 µM): 0.472
- relative viability ([4]; first compound 0.4 µM): 0.542
- relative viability ([4]; first compound 1.265 µM): 0.0442
- relative viability ([4]; first compound 4 µM): 0.155

Cell Line: IA-LM
- relative viability ([2]; first compound 0.4 µM): 0.867
- relative viability ([2]; first compound 1.265 µM): 0.735
- relative viability ([2]; first compound 4 µM): 0.758
- relative viability ([2]; first compound 12.65 µM): 0.682
- relative viability ([2]; first compound 40 µM): 0.881

Cell Line: LK-2
- relative viability ([1]; first compound 0.4 µM): 0.397
- relative viability ([1]; first compound 1.265 µM): 0.307
- relative viability ([1]; first compound 4 µM): 0.198
- relative viability ([1]; first compound 12.65 µM): 0.34
- relative viability ([1]; first compound 40 µM): 0.294
- relative viability ([3]; first compound 0.04 µM): 0.18
- relative viability ([3]; first compound 0.1265 µM): 0.172
- relative viability ([3]; first compound 0.4 µM): 0.191
- relative viability ([3]; first compound 1.265 µM): 0.161
- relative viability ([3]; first compound 4 µM): 0.2
- relative viability ([4]; first compound 0.04 µM): 0.315
- relative viability ([4]; first compound 0.1265 µM): 0.269
- relative viability ([4]; first compound 0.4 µM): 0.334
- relative viability ([4]; first compound 1.265 µM): 0.233
- relative viability ([4]; first compound 4 µM): 0.379

Cell Line: NCI-H358
- relative viability ([1]; first compound 0.4 µM): 0.248
- relative viability ([1]; first compound 1.265 µM): 0.226
- relative viability ([1]; first compound 4 µM): 0.195
- relative viability ([1]; first compound 12.65 µM): 0.212
- relative viability ([1]; first compound 40 µM): 0.218
- relative viability ([3]; first compound 0.04 µM): 0.63
- relative viability ([3]; first compound 0.1265 µM): 0.351
- relative viability ([3]; first compound 0.4 µM): 0.254
- relative viability ([3]; first compound 1.265 µM): 0.465
- relative viability ([3]; first compound 4 µM): 0.207
- relative viability ([4]; first compound 0.04 µM): 0.185
- relative viability ([4]; first compound 0.1265 µM): 0.167
- relative viability ([4]; first compound 0.4 µM): 0.161
- relative viability ([4]; first compound 1.265 µM): 0.146
- relative viability ([4]; first compound 4 µM): 0.17

Cell Line: NCI-H522
- relative viability ([1]; first compound 0.4 µM): 0.768
- relative viability ([1]; first compound 1.265 µM): 0.662
- relative viability ([1]; first compound 4 µM): 0.664
- relative viability ([1]; first compound 12.65 µM): 0.617
- relative viability ([1]; first compound 40 µM): 0.647
- relative viability ([3]; first compound 0.04 µM): 1.15
- relative viability ([3]; first compound 0.1265 µM): 1.42
- relative viability ([3]; first compound 0.4 µM): 1.25
- relative viability ([3]; first compound 1.265 µM): 0.873
- relative viability ([3]; first compound 4 µM): 1.45
- relative viability ([4]; first compound 0.04 µM): 0.807
- relative viability ([4]; first compound 0.1265 µM): 0.844
- relative viability ([4]; first compound 0.4 µM): 0.911
- relative viability ([4]; first compound 4 µM): 0.946

Cell Line: NCI-H1299
- relative viability ([2]; first compound 0.4 µM): 1.07
- relative viability ([2]; first compound 1.265 µM): 1.07
- relative viability ([2]; first compound 4 µM): 1.05
- relative viability ([2]; first compound 12.65 µM): 1.03
- relative viability ([2]; first compound 40 µM): 1.02

Cell Line: NCI-H1395
- relative viability ([1]; first compound 0.4 µM): 0.781
- relative viability ([1]; first compound 1.265 µM): 0.633
- relative viability ([1]; first compound 12.65 µM): 0.657
- relative viability ([1]; first compound 40 µM): 0.809
- relative viability ([3]; first compound 0.04 µM): 0.651
- relative viability ([3]; first compound 0.1265 µM): 0.671
- relative viability ([3]; first compound 0.4 µM): 0.673
- relative viability ([3]; first compound 1.265 µM): 0.6
- relative viability ([3]; first compound 4 µM): 0.459
- relative viability ([4]; first compound 0.04 µM): 0.396
- relative viability ([4]; first compound 0.1265 µM): 0.42
- relative viability ([4]; first compound 0.4 µM): 0.481
- relative viability ([4]; first compound 1.265 µM): 0.406
- relative viability ([4]; first compound 4 µM): 0.281
